From patent US10800791B2, “Triazole ACC inhibitors and uses thereof” (Gilead Apollo, LLC, priority 2015, dated 2020)
In brackets after ≈: the same amount, converted by molar mass. Where two headings read alike, the source gives them in different places.

Key:
C. albicans = test: Antifungal Activity Assay (broth microtiter MIC), C. albicans; format: cell-based, Candida albicans; settings: Candida albicans, ATCC90028, 48 h
Method in brief: (§1)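 MICs were scored by eye at 48 h relative to the growth control. Plates followed CLSI M27-A3, with Candida suspensions in RPMI 1640+MOPS giving a final 2.5×10^3 CFU/mL; the colonies came from Sabouraud agar grown overnight at 35 °C.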

C. krusei = test: Antifungal Activity Assay (broth microtiter MIC), C. krusei; format: cell-based, Candida krusei; settings: Pichia kudriavzevii, ATCC6258, 48 h
Method in brief: as §1

human (hACC2) = human (hACC2) (Homo sapiens, UniProt O00763); test: In vitro ACC inhibition assay (ADP-Glo), hACC2; format: biochemical; settings: Table 2b, additional results, 5 nM ACC2, 20 μM ATP, 20 μM acetyl-CoA
Protocol: The detailed procedure is as follows. […] 10 μL ADP glo reagent was added. […] 20 μL kinase detection reagent was added.

fungal (fACC2) = fungal (fACC2) (UniProt Q00955); settings: read-out: fACC2 (in vitro ACC2 Inhibition Assay, IC50); Table 2b, additional results; ADP-Glo, 5 nM ACC2, 20 μM ATP, 20 μM acetyl-CoA
C. parapsilosis = test: Antifungal Activity Assay (broth microtiter MIC), C. parapsilosis; format: cell-based, Candida parapsilosis; settings: Lodderomyces parapsilosis, ATCC22019, 48 h
Method in brief: as §1

[1] = Table 3b (additional results), ATCC 90028, 3 replicates, MIC recorded at 48 h, read-out: MIC, C. albicans ATCC 90028
[2] = Table 3b (additional results), ATCC 6258, 3 replicates, MIC recorded at 48 h, read-out: MIC, C. krusei ATCC 6258
[3] = Table 3b (additional results), ATCC 22019, 3 replicates, MIC recorded at 48 h, read-out: MIC, C. parapsilosis ATCC 22019
[4] = read-out: MIC, C. albicans ATCC 90028, Table 3b (additional results), 3 replicates, MIC recorded at 48 h
[5] = read-out: MIC, C. krusei ATCC 6258, Table 3b (additional results), 3 replicates, MIC recorded at 48 h
[6] = read-out: MIC, C. parapsilosis ATCC 22019, Table 3b (additional results), 3 replicates, MIC recorded at 48 h

Chain of human (hACC2) (O00763 whole entry): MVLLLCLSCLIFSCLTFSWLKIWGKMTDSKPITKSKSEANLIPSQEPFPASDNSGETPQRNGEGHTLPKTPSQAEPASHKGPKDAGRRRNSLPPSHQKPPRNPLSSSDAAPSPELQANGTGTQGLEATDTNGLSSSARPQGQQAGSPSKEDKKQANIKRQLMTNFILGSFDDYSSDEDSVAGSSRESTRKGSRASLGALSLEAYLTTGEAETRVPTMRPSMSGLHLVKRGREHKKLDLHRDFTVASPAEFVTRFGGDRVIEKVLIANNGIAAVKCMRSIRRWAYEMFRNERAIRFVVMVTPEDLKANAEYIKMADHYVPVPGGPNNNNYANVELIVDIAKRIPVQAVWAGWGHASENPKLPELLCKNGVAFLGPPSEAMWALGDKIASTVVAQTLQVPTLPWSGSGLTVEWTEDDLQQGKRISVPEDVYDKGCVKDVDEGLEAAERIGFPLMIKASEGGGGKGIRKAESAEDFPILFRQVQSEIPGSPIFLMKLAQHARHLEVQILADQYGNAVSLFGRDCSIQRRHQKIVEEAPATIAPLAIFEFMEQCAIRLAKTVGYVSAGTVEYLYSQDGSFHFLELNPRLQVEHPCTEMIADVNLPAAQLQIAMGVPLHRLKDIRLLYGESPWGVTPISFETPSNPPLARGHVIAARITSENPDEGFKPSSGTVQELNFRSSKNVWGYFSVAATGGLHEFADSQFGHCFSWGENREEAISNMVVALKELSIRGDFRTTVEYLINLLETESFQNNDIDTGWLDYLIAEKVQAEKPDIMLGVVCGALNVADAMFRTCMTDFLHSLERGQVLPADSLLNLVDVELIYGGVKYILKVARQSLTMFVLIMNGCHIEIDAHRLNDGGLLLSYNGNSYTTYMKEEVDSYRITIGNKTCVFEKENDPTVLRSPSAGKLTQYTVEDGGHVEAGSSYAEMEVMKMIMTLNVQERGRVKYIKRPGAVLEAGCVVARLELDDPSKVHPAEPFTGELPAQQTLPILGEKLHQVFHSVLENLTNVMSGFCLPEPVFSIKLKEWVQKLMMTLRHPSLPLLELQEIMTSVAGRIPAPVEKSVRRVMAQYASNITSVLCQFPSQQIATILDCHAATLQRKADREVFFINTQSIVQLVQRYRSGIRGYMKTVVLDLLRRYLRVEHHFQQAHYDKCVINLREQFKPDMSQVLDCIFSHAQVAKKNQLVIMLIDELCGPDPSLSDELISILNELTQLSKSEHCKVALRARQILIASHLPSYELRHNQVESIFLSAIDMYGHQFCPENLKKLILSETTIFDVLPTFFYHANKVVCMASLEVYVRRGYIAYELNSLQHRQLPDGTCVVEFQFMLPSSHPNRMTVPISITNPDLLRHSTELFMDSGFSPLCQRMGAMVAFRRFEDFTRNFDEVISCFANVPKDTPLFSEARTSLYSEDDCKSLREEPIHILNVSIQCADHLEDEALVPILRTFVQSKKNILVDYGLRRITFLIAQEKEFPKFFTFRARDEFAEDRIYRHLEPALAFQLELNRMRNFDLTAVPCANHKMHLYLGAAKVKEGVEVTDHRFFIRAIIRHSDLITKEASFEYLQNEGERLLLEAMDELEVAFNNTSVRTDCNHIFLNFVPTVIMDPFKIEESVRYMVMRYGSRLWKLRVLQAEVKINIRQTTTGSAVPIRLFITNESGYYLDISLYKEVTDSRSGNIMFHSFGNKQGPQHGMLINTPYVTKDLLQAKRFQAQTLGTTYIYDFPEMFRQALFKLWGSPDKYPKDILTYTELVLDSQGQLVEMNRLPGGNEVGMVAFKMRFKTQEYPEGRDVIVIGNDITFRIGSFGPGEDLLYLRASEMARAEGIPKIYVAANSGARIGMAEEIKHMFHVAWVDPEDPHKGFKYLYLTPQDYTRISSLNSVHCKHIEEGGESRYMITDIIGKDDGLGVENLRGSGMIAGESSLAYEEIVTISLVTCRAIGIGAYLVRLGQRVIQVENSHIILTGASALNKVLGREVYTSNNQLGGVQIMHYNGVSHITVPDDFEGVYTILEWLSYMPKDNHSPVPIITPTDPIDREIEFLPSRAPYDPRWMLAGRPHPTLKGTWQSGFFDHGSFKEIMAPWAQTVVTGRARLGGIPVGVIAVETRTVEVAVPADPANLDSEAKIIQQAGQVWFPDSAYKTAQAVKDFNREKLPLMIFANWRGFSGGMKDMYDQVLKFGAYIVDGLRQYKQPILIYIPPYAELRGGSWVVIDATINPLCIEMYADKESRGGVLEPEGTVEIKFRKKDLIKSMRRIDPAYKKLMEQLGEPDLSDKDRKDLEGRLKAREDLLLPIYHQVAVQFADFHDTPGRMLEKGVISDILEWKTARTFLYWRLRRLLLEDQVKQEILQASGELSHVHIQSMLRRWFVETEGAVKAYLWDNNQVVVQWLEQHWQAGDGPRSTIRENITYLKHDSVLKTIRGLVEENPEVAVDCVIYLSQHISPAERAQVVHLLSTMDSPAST
Chain of fungal (fACC2) (Q00955 whole entry): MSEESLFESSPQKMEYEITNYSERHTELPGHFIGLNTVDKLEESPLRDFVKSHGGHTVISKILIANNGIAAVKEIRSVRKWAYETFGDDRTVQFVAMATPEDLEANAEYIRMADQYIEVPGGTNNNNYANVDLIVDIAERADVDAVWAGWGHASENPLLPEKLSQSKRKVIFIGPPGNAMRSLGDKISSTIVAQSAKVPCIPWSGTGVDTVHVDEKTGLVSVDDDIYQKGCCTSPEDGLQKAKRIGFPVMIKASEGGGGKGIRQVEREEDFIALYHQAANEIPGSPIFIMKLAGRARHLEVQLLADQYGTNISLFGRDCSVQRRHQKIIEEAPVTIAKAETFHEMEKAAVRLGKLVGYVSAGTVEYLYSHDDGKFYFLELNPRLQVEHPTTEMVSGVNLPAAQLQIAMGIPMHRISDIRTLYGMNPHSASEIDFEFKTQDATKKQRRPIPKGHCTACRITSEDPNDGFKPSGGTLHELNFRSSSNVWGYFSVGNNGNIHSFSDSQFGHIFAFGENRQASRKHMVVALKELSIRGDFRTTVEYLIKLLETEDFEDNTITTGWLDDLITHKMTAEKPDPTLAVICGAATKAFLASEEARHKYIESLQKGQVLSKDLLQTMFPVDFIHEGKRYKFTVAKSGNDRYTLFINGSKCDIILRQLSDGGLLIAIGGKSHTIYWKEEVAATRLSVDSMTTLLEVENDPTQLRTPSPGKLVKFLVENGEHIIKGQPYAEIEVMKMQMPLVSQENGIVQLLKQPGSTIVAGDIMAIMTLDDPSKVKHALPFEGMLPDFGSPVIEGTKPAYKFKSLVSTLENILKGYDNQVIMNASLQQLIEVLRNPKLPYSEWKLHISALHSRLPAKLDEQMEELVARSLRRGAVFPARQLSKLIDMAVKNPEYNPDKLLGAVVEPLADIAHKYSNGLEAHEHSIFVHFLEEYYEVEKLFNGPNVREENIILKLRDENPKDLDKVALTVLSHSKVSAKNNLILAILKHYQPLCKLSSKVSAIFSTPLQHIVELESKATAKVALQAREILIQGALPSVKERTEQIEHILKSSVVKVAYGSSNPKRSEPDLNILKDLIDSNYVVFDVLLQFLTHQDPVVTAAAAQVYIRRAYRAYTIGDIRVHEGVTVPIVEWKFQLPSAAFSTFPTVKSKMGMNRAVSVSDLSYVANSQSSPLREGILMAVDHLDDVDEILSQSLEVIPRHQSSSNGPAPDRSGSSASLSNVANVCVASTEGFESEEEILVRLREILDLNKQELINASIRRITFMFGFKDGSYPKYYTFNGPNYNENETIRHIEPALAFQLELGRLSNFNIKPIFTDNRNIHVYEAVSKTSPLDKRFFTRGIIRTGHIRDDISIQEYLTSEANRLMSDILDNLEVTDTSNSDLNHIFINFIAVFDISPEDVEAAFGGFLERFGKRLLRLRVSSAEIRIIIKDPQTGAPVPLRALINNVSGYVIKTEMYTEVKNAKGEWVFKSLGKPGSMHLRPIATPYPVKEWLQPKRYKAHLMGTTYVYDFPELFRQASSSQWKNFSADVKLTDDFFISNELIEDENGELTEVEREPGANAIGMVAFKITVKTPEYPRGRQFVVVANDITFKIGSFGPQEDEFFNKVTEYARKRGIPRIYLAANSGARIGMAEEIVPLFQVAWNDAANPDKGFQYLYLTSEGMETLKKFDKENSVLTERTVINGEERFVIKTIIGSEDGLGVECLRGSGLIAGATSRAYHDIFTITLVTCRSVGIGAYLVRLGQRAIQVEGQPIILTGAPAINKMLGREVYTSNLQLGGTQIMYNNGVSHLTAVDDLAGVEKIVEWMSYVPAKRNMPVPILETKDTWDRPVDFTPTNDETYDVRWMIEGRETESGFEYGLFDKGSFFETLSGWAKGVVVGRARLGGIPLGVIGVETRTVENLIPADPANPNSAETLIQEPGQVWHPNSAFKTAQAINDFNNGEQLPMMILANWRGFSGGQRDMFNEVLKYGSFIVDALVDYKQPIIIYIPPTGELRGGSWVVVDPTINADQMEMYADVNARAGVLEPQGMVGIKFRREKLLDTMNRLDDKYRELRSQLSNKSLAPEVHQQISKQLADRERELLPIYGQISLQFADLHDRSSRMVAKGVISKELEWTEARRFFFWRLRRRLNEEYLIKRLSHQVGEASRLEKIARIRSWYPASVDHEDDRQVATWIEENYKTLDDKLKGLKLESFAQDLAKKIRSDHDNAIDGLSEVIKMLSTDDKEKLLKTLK

COc1ccc(Cl)cc1[C@H](Cn1c(=O)n(C(C)(C)C(=O)NC2CCC2)c(=O)c2c(C)c(-n3nccn3)sc21)OC1CCOCC1 [Compound I-228]
MIC (C. albicans; [1]): 0.25 to 1 mg/L (≈ 0.38 to 1.52 µM) | MIC (C. krusei; [2]): 0.06 to 0.249 mg/L (≈ 0.0913 to 0.379 µM) | IC50 (human (hACC2)): 5 to 10 nM | IC50 (fungal (fACC2)): 1 to 5 nM | MIC (C. parapsilosis; [3]): 0.25 to 1 mg/L (≈ 0.38 to 1.52 µM)

CCc1ccc(F)cc1[C@H](Cn1c(=O)n(C(C)(C)C(=O)NC2CCC2)c(=O)c2c(C)c(-n3nccn3)sc21)OC1CCOCC1 [Compound I-232]
MIC (C. albicans; [1]): 2.01 to 4 mg/L (≈ 3.15 to 6.26 µM) | MIC (C. krusei; [2]): 1.01 to 2 mg/L (≈ 1.58 to 3.13 µM) | IC50 (human (hACC2)): 5 to 10 nM | IC50 (fungal (fACC2)): 1 to 5 nM | MIC (C. parapsilosis; [3]): 1.01 to 2 mg/L (≈ 1.58 to 3.13 µM)

COc1ccc(F)cc1[C@H](Cn1c(=O)n(C(C)(C)C(=O)NC(C)C)c(=O)c2c(C)c(-n3nccn3)sc21)O[C@H]1C[C@@H](OCc2ccccc2)C1 [Compound I-233]
MIC (C. albicans; [1]): 0.25 to 1 mg/L (≈ 0.355 to 1.42 µM) | MIC (C. krusei; [2]): 0.25 to 1 mg/L (≈ 0.355 to 1.42 µM) | IC50 (human (hACC2)): 10 to 40 nM | IC50 (fungal (fACC2)): 1 to 5 nM | MIC (C. parapsilosis; [3]): 0.25 to 1 mg/L (≈ 0.355 to 1.42 µM)

Cc1c(-n2nccn2)sc2c1c(=O)n(C(C)(C)C(=O)NC(C)C)c(=O)n2C[C@H](OCCO)c1cc(F)ccc1OCc1ccccc1 [Compound I-237]
MIC (C. albicans; [1]): 1.01 to 2 mg/L (≈ 1.52 to 3.01 µM) | MIC (C. krusei; [2]): 1.01 to 2 mg/L (≈ 1.52 to 3.01 µM) | IC50 (human (hACC2)): 10 to 40 nM | IC50 (fungal (fACC2)): 1 to 5 nM | MIC (C. parapsilosis; [3]): 1.01 to 2 mg/L (≈ 1.52 to 3.01 µM)

CCc1ccccc1[C@H](Cn1c(=O)n(C(C)(C)C(=O)NC(C)C)c(=O)c2c(C)c(-n3nccn3)sc21)O[C@H]1CC[C@@H](C#N)CC1 [Compound I-242]
MIC (C. albicans; [4]): 1.01 to 2 mg/L (≈ 1.6 to 3.17 µM) | MIC (C. krusei; [5]): 1.01 to 2 mg/L (≈ 1.6 to 3.17 µM) | IC50 (human (hACC2)): 1 to 5 nM | IC50 (fungal (fACC2)): 1 to 5 nM | MIC (C. parapsilosis; [6]): 1.01 to 2 mg/L (≈ 1.6 to 3.17 µM)

CCc1ccc(F)cc1[C@H](Cn1c(=O)n(C(C)(C)C(=O)NC(C)C)c(=O)c2c(C)c(-n3nccn3)sc21)OC[C@H](C)C#N [Compound I-243]
MIC (C. albicans; [1]): 2.01 to 4 mg/L (≈ 3.3 to 6.56 µM) | MIC (C. krusei; [2]): > 4.01 mg/L | IC50 (human (hACC2)): > 40 nM | IC50 (fungal (fACC2)): 1 to 5 nM | MIC (C. parapsilosis; [3]): 2.01 to 4 mg/L (≈ 3.3 to 6.56 µM)

CCc1ccc(F)cc1[C@H](Cn1c(=O)n(C(C)(C)C(=O)NC(C)C)c(=O)c2c(C)c(-n3nccn3)sc21)OC[C@@H](C)C#N [Compound I-244]
MIC (C. albicans; [1]): 2.01 to 4 mg/L (≈ 3.3 to 6.56 µM) | MIC (C. krusei; [2]): > 4.01 mg/L | IC50 (human (hACC2)): > 40 nM | IC50 (fungal (fACC2)): 1 to 5 nM | MIC (C. parapsilosis; [3]): 2.01 to 4 mg/L (≈ 3.3 to 6.56 µM)

Cc1c(-n2nccn2)sc2c1c(=O)n(C(C)(C)C(=O)NC(C)C)c(=O)n2C[C@H](OCCC#N)c1cc(F)ccc1OCc1ccccc1 [Compound I-249]
MIC (C. albicans; [1]): 2.01 to 4 mg/L (≈ 2.98 to 5.94 µM) | MIC (C. krusei; [2]): 2.01 to 4 mg/L (≈ 2.98 to 5.94 µM) | IC50 (human (hACC2)): 5 to 10 nM | IC50 (fungal (fACC2)): 0.3 to 1 nM | MIC (C. parapsilosis; [3]): 1.01 to 2 mg/L (≈ 1.5 to 2.97 µM)

COc1ccc(F)cc1[C@H](Cn1c(=O)n(C(C)(C)C(=O)NC(C)C)c(=O)c2c(C)c(-n3nccn3)sc21)OCCOC(=O)C(C)C [Compound I-250]
MIC (C. albicans; [1]): 1.01 to 2 mg/L (≈ 1.53 to 3.04 µM) | MIC (C. krusei; [2]): 0.25 to 1 mg/L (≈ 0.38 to 1.52 µM) | IC50 (human (hACC2)): 5 to 10 nM | IC50 (fungal (fACC2)): 1 to 5 nM | MIC (C. parapsilosis; [3]): 0.25 to 1 mg/L (≈ 0.38 to 1.52 µM)

COc1ccc(F)cc1[C@@H](Cn1c(=O)n(C(C)(C)C(=O)NC(C)C)c(=O)c2c(C)c(-n3nccn3)sc21)OC(=O)CO [Compound I-261]
MIC (C. albicans; [1]): 0.25 to 1 mg/L (≈ 0.415 to 1.66 µM) | MIC (C. krusei; [2]): 0.06 to 0.249 mg/L (≈ 0.0996 to 0.413 µM) | IC50 (human (hACC2)): 5 to 10 nM | IC50 (fungal (fACC2)): 0.3 to 1 nM | MIC (C. parapsilosis; [3]): 1.01 to 2 mg/L (≈ 1.68 to 3.32 µM)

COc1ccc(F)cc1[C@@H](Cn1c(=O)n(C(C)(C)C(=O)NC(C)C)c(=O)c2c(C)c(-n3nccn3)sc21)OC(=O)C(C)(C)O [Compound I-263]
MIC (C. albicans; [4]): 0.25 to 1 mg/L (≈ 0.396 to 1.59 µM) | MIC (C. krusei; [5]): 0.25 to 1 mg/L (≈ 0.396 to 1.59 µM) | IC50 (human (hACC2)): 10 to 40 nM | IC50 (fungal (fACC2)): 0.3 to 1 nM | MIC (C. parapsilosis; [6]): 1.01 to 2 mg/L (≈ 1.6 to 3.17 µM)

CCOC(=O)[C@H]1CC[C@@H](O[C@@H](Cn2c(=O)n(C(C)(C)C(=O)NC(C)C)c(=O)c3c(C)c(-n4nccn4)sc32)c2cc(F)ccc2OC)CC1 [Compound I-264]
MIC (C. albicans; [1]): 0.25 to 1 mg/L (≈ 0.358 to 1.43 µM) | MIC (C. krusei; [2]): 0.06 to 0.249 mg/L (≈ 0.0859 to 0.356 µM) | IC50 (human (hACC2)): 10 to 40 nM | IC50 (fungal (fACC2)): 1 to 5 nM | MIC (C. parapsilosis; [3]): 0.25 to 1 mg/L (≈ 0.358 to 1.43 µM)

COc1ccc(F)cc1[C@H](Cn1c(=O)n(C(C)(C)C(=O)NC(C)C)c(=O)c2c(C)c(-n3nccn3)sc21)O[C@H]1CC[C@@H](C(=O)O)CC1 [Compound I-265]
MIC (C. albicans; [1]): 0.25 to 1 mg/L (≈ 0.373 to 1.49 µM) | MIC (C. krusei; [2]): 0.06 to 0.249 mg/L (≈ 0.0895 to 0.371 µM) | IC50 (human (hACC2)): 10 to 40 nM | IC50 (fungal (fACC2)): 1 to 5 nM | MIC (C. parapsilosis; [3]): 0.25 to 1 mg/L (≈ 0.373 to 1.49 µM)

CCOC(=O)[C@H]1CC[C@H](O[C@@H](Cn2c(=O)n(C(C)(C)C(=O)NC(C)C)c(=O)c3c(C)c(-n4nccn4)sc32)c2cc(F)ccc2OC)CC1 [Compound I-269]
MIC (C. albicans; [1]): 0.25 to 1 mg/L (≈ 0.358 to 1.43 µM) | MIC (C. krusei; [2]): 0.06 to 0.249 mg/L (≈ 0.0859 to 0.356 µM) | IC50 (human (hACC2)): > 40 nM | IC50 (fungal (fACC2)): 1 to 5 nM | MIC (C. parapsilosis; [3]): 0.25 to 1 mg/L (≈ 0.358 to 1.43 µM)

COc1ccc(F)cc1[C@H](Cn1c(=O)n(C(C)(C)C(=O)NC(C)C)c(=O)c2c(C)c(-n3nccn3)sc21)O[C@H]1CC[C@H](C(=O)O)CC1 [Compound I-270]
MIC (C. albicans; [1]): 0.25 to 1 mg/L (≈ 0.373 to 1.49 µM) | MIC (C. krusei; [2]): 0.06 to 0.249 mg/L (≈ 0.0895 to 0.371 µM) | IC50 (human (hACC2)): 10 to 40 nM | IC50 (fungal (fACC2)): 0.3 to 1 nM | MIC (C. parapsilosis; [3]): 0.25 to 1 mg/L (≈ 0.373 to 1.49 µM)
